Test in all cases: NCI tumour cell line growth inhibition, 48 h
Assay [1] relates to NCI-H23.
Assay [2] has as its system HCT-116.
Assay [3] deals with UO-31.
The test system of assay [4] is Malme-3M.
In assay [5] the test system is K562.
The subject of assay [6] is SNB-19.
In assay [7] the test system is MDA-MB-435.
The test system of assay [8] is OVCAR-5.
Assay [9] has as its system NCI/ADR-RES.
For assay [10], the system named is PC-3.
Assay [11] concerns COLO 205.
Assay [12] deals with BT-549.
In assay [13] the test system is U-251.
The subject of assay [14] is CCRF-CEM.
In assay [15] the test system is T47D.
Assay [16] relates to HCC 2998.
Assay [17] relates to HOP-62.
Assay [18] concerns OVCAR-8.
In assay [19] the test system is HCT-15.
Assay [20] relates to UACC-62.

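48-hour exposure; five concentrations; linearly interpolated endpoints. GI50 marks 50% less growth.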 Calls of active or inactive are those of the source. No stated cut-off is given here; in the data, active = GI50 up to about 1.1 µM and inactive = higher. Where only a bound is given, the exact number is not on record here.

As to `CN1C=Cc2nccc3cc4c(c1c23)OCO4`, the GI50 in assay [1] was 2.1 µM (inactive); in assay [2], 1.5 µM (inactive); in assay [3] it was 2.96 µM (inactive); in assay [4], 0.118 µM (active); in assay [5] it was 1.89 µM (inactive); in assay [6], 1.87 µM (inactive). For the same compound, the GI50 in assay [7] is 3.25 µM (inactive); in [8], 6.61 µM (inactive); in [9], 11.9 µM (inactive); in assay [10], 3.21 µM (inactive); in assay [11], 3.18 µM (inactive); in assay [12], 1.87 µM (inactive). Moreover, the GI50 in assay [13] is 3.09 µM (inactive); in [14] it was 1.39 µM (inactive); in assay [15], 6.82 µM (inactive); in assay [16] it was 4.03 µM (inactive); in [17] it was 1.82 µM (inactive); in assay [18] it was 5.68 µM (inactive). The GI50 in assay [19] was 7.59 µM; in [20] it was 1.36 µM (inactive).
`Cc1cc(Cc2c(F)c(F)c(C(c3cc(C)no3)c3c(F)c(F)c(F)c(F)c3F)c(F)c2F)on1` (stereo not given): the GI50 was > 100 µM (inactive) in assay [1]; 18.3 µM (inactive) in assay [2]; > 100 µM (inactive) in assay [3]; > 100 µM (inactive) in assay [4]; 9.46 µM (inactive) in [5]; > 100 µM (inactive) in [6]. Further, the GI50 in assay [7] was 3.04 µM (inactive); in assay [8] it was > 100 µM (inactive); in assay [9], > 28.2 µM (inactive); in [10] it was 69.5 µM (inactive); in assay [11], > 100 µM (inactive); in [12] it was > 100 µM (inactive). For the same compound, the GI50 in [13] was 18.4 µM (inactive); in assay [14], 62.7 µM (inactive); in assay [15], > 100 µM (inactive); in [16] it was > 27.9 µM (inactive); in assay [17] it was > 100 µM (inactive); in assay [18], > 100 µM (inactive). For the same compound, the GI50 in assay [19] was 14.2 µM; in assay [20] it was > 27 µM (inactive).

These data come from ChEMBL document CHEMBL1201862, “PubChem BioAssay data set” (2004).
